Laboratory results taken from patent publication US20100240656A1, “COMPOUNDS AS HSP90 INHIBITORS” (ORYZON GENOMICS, S.A., priority 2007, published 2010).

Tests used:
[1] = target: T1, Hsp90α (Homo sapiens, UniProt P07900); experiment: Human Hsp90α fluorescence polarization competition assay with Example 37 tracer; details: displacement of 50 nM example 37 tracer, 125 nM Hsp90α, 1 h 30 min, 20° C.; read-out: Relative binding affinity values (IC50) obtained from FP measurements
T1 construct: purchased Stressgen Bioreagents SPP-776
Source text: The aim of this study was to determine the binding ability of compounds of the invention to the N-terminal ATP binding site of Hsp90. For that purpose competition assays with fluorescently labeled Hsp90 binders were used (compounds of examples 37 and 41).
Compounds of examples 37 and 41 are structurally based on 8-(6-Iodo-benzo[1,3]dioxol-5-ylsulfanyl)-9-(3-isopropylamino-propyl)-9H-purin-6-ylamine, a known binder of the N-terminal ATP binding site of Hsp90 which has the ability of inhibiting the Hsp90 function (cf. Chiosis G. et al. “Identification of Potent Water Soluble Purine-Scaffold Inhibitors of the Heat Shock Protein 90”, J. Med. Chem., 2006, vol. 49, no. 1, p. 381). Compounds 37 and 41 keep the essential structural features of the known binder (which means that said compounds are able to bind to the ATP binding site) and incorporate a fluorescent probe which allows the detection of the binding by fluorescence polarization.
When the binders of examples 37 and 41 are used in the competition assay, in a first step said binders are allowed to interact with the N-terminal ATP binding site of Hsp90. Then the compounds of the invention are added and it is determined if they are able to bind to the N-terminal ATP binding site (which will imply that the binders of examples 37 and 41 have been replaced from the N-terminal ATP binding site). If after performing the assay, the binding between the tested compound of the invention and the Hsp90 is observed, this will be indicative that the compound of the invention has been bound to the ATP binding site of Hsp90 and, therefore, can inhibit the Hsp90.
Once compounds of examples 37 and 41 were synthesized as reported above, they were dissolved at 238 μM and 1 mM in DMSO respectively (Sigma-Aldrich, cat. No. 154938). Hsp90α was purchased from Stressgen Bioreagents (cat. No. SPP-776; Victoria, Canada). The assay buffer contained 100 mM Tris·HCl, pH 7.4, 20 mM KCl, 6 mM MgCl2. Before each use 5 μg/mL bovine serum albumin (BSA, Pierce, Rockford (Ill.), cat No. 23209), 0.25 mM TCEP (Sigma, cat No. 64706) and 0.01% NP40 (Nonidet P40 Substitute, Fluka, cat No. 74385) were freshly added (cf. Howes et al., “A fluorescence polarization assay for inhibitors of Hsp90”, Analytical Biochemistry, 2006, vol. 350, p. 202-213; Kim et al., “Development of a fluorescence polarization assay for the molecular chaperone Hsp90”, J. Biomol. Screen., 2004, vol. 9 (5)).
Fluorescence polarization measurements were performed on an Infinite F200 (Tecan, Austria). Measurements were taken in black 96-well microplates (Corning Costar No. 3650) in which both the excitation and the emission occurred from the top of the wells. In the Infinite F200, a xenon arc lamp provides excitation light that passes through a 485 nm (20-nm bandwidth) excitation filter and then a polarizer filter. A beam splitter filter directs the polarized excitation light into the well, and emitted fluorescence transmits back through the same beam-splitter filter, through a polarizer filter, and then through a 535 nm (25-nm bandwidth) emission filter for detection (Kim et al., supra). The read time per well was 20 μs, and the number of reads per well was 25.
Compounds were assayed over a three-fold dilution series in a 96-well plate format to determine IC50 values. The serial dilution was performed in a separate 96-well plate (Thermowell 96 well PCR plate, Non-Treated Polypropylene, Corning Costar No. 6551) at 50 times final assay concentration in DMSO. (Howes et al, supra). 2 μl of compound was transferred to a black 96-well plate (Corning Costar No. 3650) and 98 μL of reaction solution (100 mM Tris·HCl, pH 7.4, 20 mM KCl, 6 mM MgCl2, 5 μg/mL bovine serum albumin (BSA), 0.25 mM TCEP, 0.01% NP40, 50 nM the compound of example 37, 125 nM Hsp90α) was added per well. The plate was allowed to equilibrate for 1 h 30 min on a slow moving shaker at 20° C. in the dark. […]

[2] = system: A-549; experiment: Cell proliferation by MTT method, A-549; type: cell-based; details: Homo sapiens
Method: The objective of this study was to determine the influence of the compounds on cell proliferation of K-562, A-549, MCF-7, HeLa, WI-38 by MTT method. The compounds were tested over a three-fold dilution series in triplicate for the determination of EC50 of their influence on cell proliferation.
The assay is based on the cleavage of the yellow tetrazolium salt MTT into purple formazan by metabolically active cells. The MTT formazan crystals are insoluble in aqueous solution, but may be solubilized by adding the 10% SDS, then incubating the plates overnight in a humidified atmosphere (e.g., 37° C., 5% CO2). The solubilized formazan product can be photometrically quantitated using Tecan reader. An increase in the number of living cells results in an increase of total metabolic activity, which leads to a stronger color formation.
EC50 values are defined as the compound concentration at which 50% of reaction product is formed.
Test compounds were dissolved to 10 mM in 100% DMSO.
In the day of the experiment cells were seeded into all wells of 96-well plates. Serial dilution of compounds was performed in a separate 96-well plate at 20 times final assay concentration in cell culture medium (DMEM with 10% Fetal Bovine Serum). 5 μl of compound was transferred to 96-well plate containing seeded cells in cell culture medium (final total volume=100 μl). Cells were cultured in the presence of the respective test substances in the 96-well plate at 37° C. in a humidified 5% CO2 incubator for a certain period of time (24, 72 or 120 hours). Then 5 μL of thiazolyl blue tetrazolium bromide (MTT) 5 mg/mL was added to the cells and the cells were reincubated 4 hours in a humidified 5% CO2 incubator. Then 10% SDS was added into the each well. The reaction product was quantified by measuring the absorbance at 568 nm using a scanning multiwell spectrophotometer Tecan. The developed color and thereby the absorbance values directly correlate to the number of the living cells.
The data were analyzed using Microsoft Excel 2000, GraphPad Prism 3.03.
K 562 (human, chronic myelongenous leukemia), A 549 (human, lung carcinoma), MCF-7 (human, breast adenocarcinoma), Hela (human, cervix, carcinoma, epitheloid), WI-38 (human, embryonic lung)

[3] = A549, 24 h, A 549, incubation 1 day
[4] = A549, 72 h, A 549, incubation 3 days
[5] = A549, 120 h, A 549, incubation 5 days

SMILES	IC50 [1]	EC50 [2, 3]	EC50 [2, 4]	EC50 [2, 5]
NCCCCCn1c(Sc2cc3c(cc2I)OCO3)nc(C(N)=O)c1N [Example 6, 5-amino-1-(5-amino-pentyl)-2-(6-iodo-benzo[1,3]dioxol-5-ylsulfanyl)-1H-imidazole-4-carboxamide]	0.88 µM	> 100 µM	24.1 µM	14.9 µM
CCCCn1c(Sc2cc3c(cc2I)OCO3)nc(C(N)=O)c1N [Example 10, 5-amino-1-butyl-2-(6-iodo-benzo[1,3]dioxol-5-ylsulfanyl)-1H-imidazole-4-carboxamide]	1.7 µM	> 100 µM	13.3 µM	16.2 µM
